Measurements taken from patent US20050013914A1, “Method of sustaining aroma and use thereof” (priority 2001, published 2005).

Legend:
Format in all cases: physicochemical
[1] = Effect of suppressing volatilization: retained ethanol by gas chromatography (Example C-2); settings: for Amount of Retained Ethanol: per 1 g of material
Protocol: About 5 g of an ethanol-retaining material with CTS crystalline anhydrate, branched cyclodextrin, anhydrous trehalose, or dextrin, prepared freshly by the method described in Example C-1, was taken into a 20 ml volume of glass vials. The vials were placed under normal pressure and room temperature for the purpose of evaporating ethanol. The amount of retained ethanol in samples freshly prepared, or after two hours later, four hours later, eight hours later, or 24 hours later, was measured by dissolving each sample in about 10 ml of water, diluting it with water to give a volume of 100 ml in a glass measuring flask, and measuring the amount of ethanol dissolved in the resulting aqueous solution by a gas chromatography. In the case of a soluble starch as a sample, additional centrifuging was carried out after diluting up to 100 ml. The above gas chromatography was carried out using “GC-14B” (a gas liquid chromatography commercialized by Shimazu Corporation, Kyoto, Japan) equipped with “TC-5” (a capillary column sized 0.53 mm in diameter and 15 m in length, commercialized by GL Sciences Inc., Tokyo, Japan). The amount of retained ethanol per 1 g of each material is in Table 2.
In this table, each value in the parentheses means a relative percentage to the ethanol amount (100%) just after its preparation.

[2] = Adsorption of liquid ethanol or acetic acid on saccharide powder (Example C-1); settings: until mixture did not keep a powder form; for Amount of Adsorbed Acetic Acid: acetic acid adsorbed on 1 g of saccharide; for Amount of Adsorbed Ethanol: ethanol adsorbed on 1 g of saccharide
Text: CTS crystalline pentahydrate, prepared by the method described in Example B-3, CTS crystalline monohydrate, prepared by the method described in Example B-4, CTS crystalline anhydrate, prepared by the method described in Example B-5, or CTS amorphous anhydrate prepared by the method described in Example B-6, was used for preparation of aroma-retaining material. “ISOELEAT P™”, a branched cyclodextrin commercialized by Maruha corporation, Tokyo, Japan, anhydrous trehalose prepared by the method described in Japanese Patent Kokai No. 111,284/97, “PINEFIBRE™”, a dextrin commercialized by Matsutani Chemical Industries Co., Ltd., Tokyo, Japan, or soluble starch in a reagent grade commercialized by Katayama Chemical Industries, Co., Ltd., Tokyo, Japan, was dried in vacuo at 80° C. for 16 hours as control saccharides. […] The resulting mixture was weighed. The weight of ethanol or acetic acid was calculated by subtracting the pre-measured saccharide weight. The weight of ethanol or acetic acid adsorbed on 1 g of each saccharide was in Table 1.

[3] = Adsorption and 10-day retention of lavender oil, citronellol or phenethyl alcohol on saccharides (Example C-4); settings: for Amount of the Adsorbed Substance: freshly prepared sample; for Relative Amount of the Retained Substance: preserved at 25° C. for 10 days vs freshly prepared
Text: The following example is a test to confirm the effect of CTS crystalline hydrate, CTS crystalline anhydrate, or CTS amorphous anhydrate on retaining, as an aromatic substance, lavender oil, citronellol, or phenethyl alcohol. CTS crystalline pentahydrate prepared by the method described in Example B-3, CTS crystalline anhydrate in Example B-5, and CTS amorphous anhydrate in Example B-6 were used as the test saccharides “ISOELEAT P®”, a branched cyclodextrin commercialized by Maruha Corporation, Tokyo, Japan, was used as a control.
In the case of lavender oil, five parts by weight of each of the above saccharides were taken into a glass dish sized 90 mm in diameter and 20 mm in depth, admixed with one part by weight of lavender oil by stirring. Lavender oil was measured by the method described as follows; admixing 2 ml of diethyl ether with 1 g of each of the above samples freshly prepared or after preserved at 25° C. for 10 days; measuring the extracted lavender oil by gas chromatography using “GC-14B” (a gas chromatography commercialized by Shimazu corporation, Kyoto, Japan) equipped with “TC-Wax” (a capillary column sized 0.53 mm in diameter and 25 m in length commercialized by GL Sciences Inc., Tokyo, Japan.
In the case of citronellol or phenethyl alcohol, five parts by weight of each of the above saccharides were taken into a glass dish sized 90 mm in diameter and 20 mm in depth, admixed with one part by weight of citronellol or phenethyl alcohol, and mixed by stirring. The adsorbed citronellol or phenethyl alcohol was measured by admixing 2 ml of diethyl ether with 1 g of each of the above sample freshly prepared or after preserved at 25° C. for 10 days, and measuring the extracted lavender oil by gas chromatography using “GC-14B” (a gas chromatography device commercialized by Shimazu corporation, Kyoto, Japan) equipped with “DB-5” (a capillary column sized 0.25 mm in diameter and 30 m in length commercialized by GL Sciences Inc., Tokyo, Japan).
The amount of the retained aromatic substance in each sample was calculated using the following formula, and the results were shown in Table 4.
Formula: Relative amount of the retained Substance (%)={(an amount of aromatic substance in a sample preserved for 10 days)/(an amount of aromatic substance in a freshly prepared sample)}×100

[4] = 2 h later, normal pressure, room temperature
[5] = 4 h later, normal pressure, room temperature
[6] = 8 h later, normal pressure, room temperature
[7] = 24 h later, normal pressure, room temperature
[8] = citronellol, listed as Sample 2
[9] = lavender oil, listed as Sample 2
[10] = phenethyl alcohol, listed as Sample 2

| Structure (SMILES) | Relative percentage to the ethanol amount just after preparation ([1]; 2 h later) | Relative percentage to the ethanol amount just after preparation ([1]; 4 h later) | Relative percentage to the ethanol amount just after preparation ([1]; 8 h later) | Relative percentage to the ethanol amount just after preparation ([1]; 24 h later) | Relative percentage to the ethanol amount just after preparation ([1]; freshly prepared) | Amount of Retained Ethanol [1, 4] | Amount of Retained Ethanol [1, 5] | Amount of Retained Ethanol [1, 6] | Amount of Retained Ethanol [1, 7] | Amount of Retained Ethanol ([1]; freshly prepared) | Amount of Adsorbed Acetic Acid [2] | Amount of Adsorbed Ethanol [2] | other results |
| --- | --- | --- | --- | --- | --- | --- | --- | --- | --- | --- | --- | --- | --- |
| OC[C@H]1O[C@H](O[C@H]2O[C@H](CO)[C@@H](O)[C@H](O)[C@H]2O)[C@H](O)[C@@H](O)[C@@H]1O [Anhydrous trehalose, reference compound] | (51%) | (8%) | (4%) | (2%) | (100%) | 103 mg | 17 mg | 8 mg | 5 mg | 203 mg | 0.18 g | 0.25 g | – |
| OCC1OC2OCC3O[C@H](O[C@H]4C(O)C(CO)OC(OCC5O[C@H](O[C@@H](C1O)C2O)C(O)C(O)[C@@H]5O)C4O)C(O)C(O)[C@@H]3O (some centres unmarked) [CTS crystalline anhydrate] | (101%) | (87%) | (3%) | (2%) | (100%) | 335 mg | 290 mg | 10 mg | 5 mg | 333 mg | 0.47 g | 0.50 g | Adsorbing capability relative to branched cyclodextrin ([3]; citronellol): about 1.2 fold; Amount of the Adsorbed Substance ([3]; citronellol): 195 mg/g saccharide; Amount of the Adsorbed Substance [3, 8]: 195 mg/g saccharide; Relative Amount of the Retained Substance [3, 8]: 42%; Adsorbing capacity relative to branched cyclodextrin ([3]; lavender oil): about 1.3 fold; Amount of the Adsorbed Substance ([3]; lavender oil): 190 mg/g saccharide; Amount of the Adsorbed Substance [3, 9]: 190 mg/g saccharide; Relative Amount of the Retained Substance [3, 9]: 12%; Amount of the Adsorbed Substance ([3]; phenethyl alcohol): 190 mg/g saccharide; Amount of the Adsorbed Substance [3, 10]: 190 mg/g saccharide; Relative Amount of the Retained Substance [3, 10]: 16% |
